# Laboratory results reported in ChEMBL document CHEMBL5046264, “Cyclotides Chemosensitize Glioblastoma Cells to Temozolomide” (J Nat Prod, 2022).
# The source made the active and inactive calls. The calls are words filed in the database; no cut-off is given here.
# How the values were obtained:
# [1] = tested on: SH-SY5Y; experiment: Cytotoxicity against human SH-SY5Y cells using best fit nonlinear regression analysis; format: functional, cell-based
# [2] = tested on: U-251; experiment: Cytotoxicity against human U-251 cells by sulforhodamine B assay; format: functional, cell-based
# [3] = tested on: U-87 MG; experiment: Cytotoxicity against human U-87 MG cells by sulforhodamine B assay; format: functional, cell-based, U-87MG ATCC
# [4] = tested on: SH-SY5Y; experiment: Cytotoxicity against human SH-SY5Y cells assessed as cell viability using raw interpretation method; format: functional, cell-based
# [5] = tested on: U-87 MG; experiment: Cytotoxicity against human U-87 MG cells assessed as cell viability using raw interpretation method; format: functional, cell-based, U-87MG ATCC
# [6] = tested on: U-87 MG; experiment: Cytotoxicity against human U-87 MG cells using best fit nonlinear regression analysis; format: functional, cell-based, U-87MG ATCC
# [7] = tested on: SH-SY5Y; experiment: Cytotoxicity against human SH-SY5Y cells assessed as cell viability at 5 uM upto 72 hrs by MTT assay; format: functional; conditions: time hrs <=72, read-out: Activity
# [8] = tested on: U-87 MG; experiment: Cytotoxicity against human U-87 MG cells assessed as cell viability at 5 uM upto 72 hrs by MTT assay; format: functional, U-87MG ATCC; conditions: time hrs <=72, read-out: Activity
# [9] = tested on: SH-SY5Y; experiment: Cytotoxicity against human SH-SY5Y cells assessed as cell viability at 10 uM upto 72 hrs by MTT assay; format: functional; conditions: time hrs <=72, read-out: Activity
# [10] = tested on: U-87 MG; experiment: Cytotoxicity against human U-87 MG cells assessed as cell viability at 10 uM upto 72 hrs by MTT assay; format: functional, U-87MG ATCC; conditions: time hrs <=72, read-out: Activity
# [11] = tested on: SH-SY5Y; experiment: Cytotoxicity against human SH-SY5Y cells assessed as TMZ-induced cell death at 1.4 uM cotreated with 176 uM of TMZ incubated upto 72 hrs by MTT assay; format: functional, cell-based; conditions: time hrs <=72
# [12] = tested on: U-87 MG; experiment: Cytotoxicity against human U-87 MG cells assessed as TMZ-induced cell death at 0.35 to 2.8 uM cotreated with 176 to 704 uM of TMZ incubated upto 72 hrs by MTT assay; format: functional, cell-based; conditions: U-87MG ATCC, dose 0.35-2.8 µM, time hrs <=72
# [13] = tested on: U-87 MG; experiment: Cytotoxicity against human U-87 MG cells assessed as TMZ-induced cell death at 4.2 uM cotreated with 1408 uM of TMZ incubated upto 72 hrs by MTT assay; format: functional, cell-based; conditions: U-87MG ATCC, time hrs <=72
# [14] = tested on: U-87 MG; experiment: Induction of morphological changes in human U-87 MG cells assessed as appearance of shrunken cell bodies at 1408 uM measured after 72 hrs by phase contrast microscopy; format: functional, U-87MG ATCC
# [15] = tested on: U-87 MG; experiment: Induction of morphological changes in human U-87 MG cells assessed as membrane blebbing at 1408 uM measured after 72 hrs by phase contrast microscopy; format: functional, U-87MG ATCC
# [16] = tested on: U-87 MG; experiment: Induction of morphological changes in human U-87 MG cells assessed as appearance of undergoing apoptosis at 1408 uM measured after 72 hrs by phase contrast microscopy; format: functional, U-87MG ATCC
# [17] = tested on: U-87 MG; experiment: Induction of morphological changes in human U-87 MG cells assessed as cell death at 4.2 uM cotreated with 1408 uM of TMZ measured after 72 hrs by phase contrast microscopy; format: functional, U-87MG ATCC
# [18] = tested on: U-87 MG; experiment: Effect on cell morphology in human U-87 MG cells at 4.2 uM cotreated with 1408 uM of TMZ measured after 72 hrs by phase contrast microscopy; format: functional, cell-based; conditions: U-87MG ATCC
Compound,IC50 [1] [µM],IC50 [2],IC50 [3] [µM],IC50 [4] [µM],IC50 [5] [µM],IC50 [6] [µM],viability at 5 µM [7] [%],viability at 5 µM [8] [%],viability at 10 µM [9] [%],viability at 10 µM [10] [%],Activity [11],Activity [12],Activity [13],Activity [14] [%],Activity [15] [%],Activity [16] [%],Activity [17] [%],Activity [18]
CC(C)C[C@@H]1NC(=O)CNC(=O)[C@H](CC(N)=O)NC(=O)[C@H](CCCNC(=N)N)NC(=O)[C@H]([C@@H](C)O)NC(=O)[C@@H]2CSSC[C@@H]3NC(=O)[C@H]([C@@H](C)O)NC(=O)CNC(=O)CNC(=O)[C@H](C(C)C)NC(=O)[C@@H]4CSSC[C@H](NC(=O)[C@H]([C@@H](C)O)NC(=O)[C@H](CSSC[C@H](NC(=O)[C@H](C(C)C)NC(=O)[C@@H]5CCCN5C1=O)C(=O)NCC(=O)N[C@@H](CCC(=O)O)C(=O)N[C@@H]([C@@H](C)O)C(=O)N4)NC(=O)CNC(=O)[C@@H]1CCCN1C(=O)[C@H]([C@@H](C)O)NC(=O)[C@H](CC(N)=O)NC3=O)C(=O)N[C@@H](CO)C(=O)N[C@@H](Cc1c[nH]c3ccccc13)C(=O)N1CCC[C@H]1C(=O)N[C@@H](C(C)C)C(=O)N2,5.56,10.9 µM,3.21,6.05,7.97,7.93,60,60,20,40,–,–,–,–,–,–,–,–
CC(C)C[C@@H]1NC(=O)CNC(=O)[C@H](CC(N)=O)NC(=O)[C@H](CCCNC(=N)N)NC(=O)[C@H](CO)NC(=O)[C@@H]2CSSC[C@@H]3NC(=O)[C@H]([C@@H](C)O)NC(=O)CNC(=O)CNC(=O)[C@H](C(C)C)NC(=O)[C@@H]4CSSC[C@H](NC(=O)[C@H]([C@@H](C)O)NC(=O)[C@H](CSSC[C@H](NC(=O)[C@H](C(C)C)NC(=O)[C@@H]5CCCN5C1=O)C(=O)NCC(=O)N[C@@H](CCC(=O)O)C(=O)N[C@@H]([C@@H](C)O)C(=O)N4)NC(=O)CNC(=O)[C@@H]1CCCN1C(=O)[C@H]([C@@H](C)O)NC(=O)[C@H](CC(N)=O)NC3=O)C(=O)N[C@@H](CO)C(=O)N[C@@H](Cc1c[nH]c3ccccc13)C(=O)N1CCC[C@H]1C(=O)N[C@@H](C(C)C)C(=O)N2,2.88,37.2 µg/mL,–,3.53,3.76,2.91,13.2,29.6,–,–,Active,Active,Active,40,40,40,50,Active
